Activity calls are given as the source filed them. No rule for the calls is given here.
test system: Broad 7084-01 inhibitor HTS, set 2; test: single-concentration hits, screen 7084 set 2 (AID 977613);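 also: host cells are infected with parasite promastigotes that become internalized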

SMILES | active concentration
CC(=O)N1[C@H](C(=O)NCc2ccccc2Cl)[C@@H](CO)[C@@H]2Cn3c(ccc(-c4cncnc4)c3=O)[C@@H]21 | > 10 µM (inactive)
CCC(=O)N1CC2(C1)[C@@H](c1ccc(-c3ccc(F)cc3)cc1)[C@@H](CO)N2C(=O)CC | > 10 µM (inactive)
N#C[C@@H]1[C@H](c2ccccc2-c2ccccc2)[C@@H](CO)N1C(=O)Cc1ccncc1 | > 10 µM (inactive)
N#Cc1ccc(-c2ccc3c(c2)[C@H]2[C@H](CCN2C(=O)C2CCCCC2)[C@H](CO)N3)cc1 | > 10 µM (inactive)
O=C(NC1Cc2ccccc2C1)[C@H]1[C@H](CO)[C@H]2Cn3c(cccc3=O)[C@H]2N1C(=O)c1cnccn1 | > 10 µM (inactive)
O=C(c1cccc(F)c1)N1CCCCN2[C@H](CO)[C@@H](c3ccc(C#CC4(O)CCCC4)cc3)[C@H]2C1 | > 10 µM (inactive)
O=C(C[C@H]1CC[C@@H]2[C@H](COC[C@@H](O)CN2C(=O)Nc2ccc(Cl)cc2)O1)NCC1CC1 | > 10 µM (inactive)
CC(=O)N1[C@H](CO)[C@@H](c2ccccc2)C12CN(C(=O)Cc1ccccc1)C2 | > 10 µM (inactive)
COc1cccc(-c2ccc([C@@H]3[C@@H](CO)N4C(=O)CNC[C@H]34)cc2)c1 | > 10 µM (inactive)
O=C(Nc1cccc(F)c1)N1C[C@@H]2[C@H](c3ccccc31)[C@H](CO)N2C(=O)Cc1ccccn1 | > 10 µM (inactive)
O=C(Cc1ccncc1)N1CC[C@@H]2[C@H](CO)Nc3ccc(-c4ccccc4F)cc3[C@@H]21 | > 10 µM (inactive)
COCC(=O)N1CC2(C1)CN(C(=O)NC1CCCC1)[C@H](CO)c1c2c2ccc(OC)cc2n1C | > 10 µM (inactive)
O=C(O)[C@H]1[C@H](CO)[C@H]2Cn3c(ccc(C4=CCCCC4)c3=O)[C@@H]1N2C(=O)Cc1ccccn1 | > 10 µM (inactive)
N#C[C@H]1[C@H](c2ccccc2-c2ccc(F)cc2)[C@@H](CO)N1C(=O)Cc1cccnc1 | > 10 µM (inactive)
O=C(O)[C@H]1[C@H](CO)[C@H]2Cn3c(ccc(/C=C/c4ccccc4)c3=O)[C@H]2N1Cc1ccc2c(c1)OCO2 | > 10 µM (inactive)
CN1C(=O)c2cc(NC(=O)Nc3ccccc3Cl)ccc2OC[C@H]2O[C@@H](CC(=O)NCCCN3CCOCC3)CC[C@@H]21 | > 10 µM (inactive)
O=C(C[C@@H]1CC[C@@H]2[C@H](COC[C@H](O)CN2C(=O)c2ccc(F)cc2)O1)NCc1cccc(F)c1 | > 10 µM (inactive)
COCC(=O)N1CC2(CCN(Cc3cccnc3)CC2)c2c(n(C)c3cc(OC)ccc23)[C@@H]1CO | > 10 µM (inactive)
CN1CCN(C(=O)C[C@H]2CC[C@@H]3[C@H](COC[C@H](O)CN3C(=O)C3CC3)O2)CC1 | > 10 µM (inactive)
O=C(C[C@@H]1CC[C@@H]2[C@H](COC[C@H](O)CN2CC2CC2)O1)NCc1ccc(Cl)cc1 | > 10 µM (inactive)
C/C=C/c1ccc([C@@H]2[C@@H](CO)N3C(=O)CN(Cc4ccc(F)cc4)C[C@@H]23)cc1 | > 10 µM (inactive)
OC[C@@H]1[C@@H]2c3ccccc3NC[C@@H]2N1CC1CCOCC1 | > 10 µM (inactive)
COc1ccc2c3c(n(C)c2c1)[C@H](CO)N(S(=O)(=O)c1ccc(C)cc1)CC31CCN(C)CC1 | > 10 µM (inactive)
N#C[C@H]1[C@@H](c2ccccc2C2=CCCCC2)[C@H](CO)N1C(=O)c1cccc(F)c1 | > 10 µM (inactive)
N#C[C@@H]1[C@@H](c2ccccc2-c2cccc(F)c2)[C@@H](CO)N1C(=O)C1CC1 | > 10 µM (inactive)

SMILES | active concentration
OC[C@@H]1Nc2ccc(-c3ccccc3)cc2[C@H]2[C@@H]1CCN2Cc1ccccc1F | > 10 µM (inactive)
COc1ccc(C#Cc2ccc3c(c2)[C@H]2[C@H](CCN2C(=O)c2cccc(F)c2)[C@@H](CO)N3)cc1 | > 10 µM (inactive)
O=S(=O)(c1cccs1)N1CCCCN2[C@@H](CO)[C@@H](c3ccc(/C=C/c4ccccc4)cc3)[C@@H]2C1 | > 10 µM (inactive)
CN(C)CC(=O)N1CCCCN2[C@H](C1)[C@H](c1ccc(/C=C/c3ccccc3)cc1)[C@@H]2CO | > 10 µM (inactive)
O=C(C[C@H]1CC[C@@H]2[C@H](COC[C@@H](O)CN2Cc2cc(F)cc(F)c2)O1)NC1CCC1 | > 10 µM (inactive)
Cc1nn(C)cc1NC(=O)C[C@H]1CC[C@H]2[C@@H](COc3ccc(NC(=O)C4CCOCC4)cc3C(=O)N2C)O1 | > 10 µM (inactive)
O=C(Nc1ccccc1F)N1CC(=O)N2[C@H](CO)[C@@H](c3ccc(-c4cccnc4)cc3)[C@@H]2C1 | > 10 µM (inactive)
O=C(NC1Cc2ccccc2C1)[C@H]1[C@H](CO)[C@H]2Cn3c(cccc3=O)[C@@H]1N2C(=O)CC1CC1 | > 10 µM (inactive)
O=C(C[C@H]1CC[C@H]2[C@@H](COC[C@H](O)CN2C(=O)c2ccncc2)O1)NCc1ccc(-c2ccccc2)cc1 | > 10 µM (inactive)
CN(C)C(=O)C[C@H]1CC[C@@H]2[C@H](COC[C@H](O)CN2CC2CCCC2)O1 | > 10 µM (inactive)
O=C(C[C@@H]1CC[C@@H]2[C@H](COC[C@H](O)CN2Cc2nccs2)O1)NCc1ccccc1 | > 10 µM (inactive)
O=C(CC1CC1)N1[C@H](CO)[C@@H](c2ccccc2)C12CN(Cc1ccccc1F)C2 | > 10 µM (inactive)
CC(=O)N1CCCCN2[C@@H](CO)[C@H](c3ccc(-c4ccccc4)cc3)[C@@H]2C1 | > 10 µM (inactive)
O=C(C1CCCCC1)N1C[C@@H]2[C@H](c3ccccc31)[C@H](CO)N2C(=O)Cc1ccccn1 | > 10 µM (inactive)
O=C(C[C@@H]1CC[C@H]2[C@@H](COC[C@@H](O)CN2C(=O)Nc2ccc(Cl)cc2)O1)NCC1CC1 | > 10 µM (inactive)
CN1C(=O)c2cc(NC(=O)Cc3cccs3)ccc2OC[C@H]2O[C@H](CC(=O)N[C@@H]3CCN(Cc4ccccc4)C3)CC[C@H]21 | > 10 µM (inactive)
CC(C)NC(=O)N1CC2(C1)[C@H](c1ccccc1)[C@@H](CO)N2C(=O)C1CCCC1 | > 10 µM (inactive)
O=C(C[C@@H]1CC[C@H]2[C@@H](COC[C@H](O)CN2Cc2cccc(C(F)(F)F)c2)O1)NCc1ccccc1 | > 10 µM (inactive)
O=C(c1cnccn1)N1CC(=O)N2[C@H](CO)[C@@H](c3ccc(C#CC4CC4)cc3)[C@@H]2C1 | > 10 µM (inactive)
O=C(C[C@@H]1CC[C@H]2[C@@H](COC[C@H](O)CN2Cc2ccc3c(c2)OCO3)O1)Nc1ccccc1 | > 10 µM (inactive)
COc1cccc(S(=O)(=O)N2CC3(CCN(C)CC3)c3c([nH]c4cc(OC)ccc34)[C@@H]2CO)c1 | > 10 µM (inactive)
N#C[C@@H]1[C@@H](c2ccccc2C2=CCCCC2)[C@@H](CO)N1C(=O)c1cccc(F)c1 | > 10 µM (inactive)
CN1C(=O)c2cc(NC(=O)C3CCOCC3)ccc2OC[C@H]2O[C@@H](CC(=O)NCC3CCCCC3)CC[C@H]21 | > 10 µM (inactive)
COCC(=O)N1[C@H](C#N)[C@@H](c2ccccc2-c2cccc(C)c2)[C@@H]1CO | > 10 µM (inactive)
CC(C)NC(=O)N1CC2(C1)[C@H](c1ccccc1)[C@@H](CO)N2CCC(F)(F)F | > 10 µM (inactive)

From PubChem BioAssay AID977613 (Broad Institute, 2014)
